Measurements reported in patent US20100168053A1, “ORAL DELIVERY SYSTEM FOR METHYLCOBALAMIN TO TREAT DISORDERS” (REVITAPOP, priority 2008, published 2010).

Assay: Onset and duration of effect of methylcobalamin administration (subject reports, QEEG)
Type: in vivo, human
Conditions: varies between persons
Method: In a person responsive to methylcobalamin, the effects of methylcobalmin administered nasally may begin to occur within minutes of administration. […] In various experiments, subjects reported feeling better in minutes and sometimes seconds. Thus, improvements can occur within the first hour of administration.
Although the effects of a typical administration can last about 24 hours, every person is different. Thus, some people can become depleted of available methylcobalamin in hours or less, while others can feel the benefits for days. The dosage and frequency of methylcobalamin administration can decrease over time, particularly with changing lifestyle or eating habits. For example, reducing intake of milk and wheat products, complex carbohydrates and starches, and improvements to intestinal flora may reduce the need for methylcobalamin.

C/C1=C2/[N-][C@H]([C@H](CC(N)=O)[C@@]2(C)CCC(=O)NC[C@@H](C)OP(=O)([O-])O[C@H]2[C@@H](O)[C@@H](n3cnc4cc(C)c(C)cc43)O[C@@H]2CO)[C@]2(C)N=C(/C(C)=C3N=C(/C=C4N=C1[C@@H](CCC(N)=O)C\4(C)C)[C@@H](CCC(N)=O)[C@]\3(C)CC(N)=O)[C@@H](CCC(N)=O)[C@]2(C)CC(N)=O.[CH3-].[Co+3] [methylcobalamin]
duration of effects of a typical administration: about 24 hours
